Data: patent US6518304B1, “Fungicidal composition” (Sumitomo Chemical Company, Limited, priority 1993, dated 2003)
Read-outs that look alike come from different tables or passages of the source.

Legend:
[1] = tested on: grape downy mildew fungus; assay: Test Example 9: grape downy mildew, foliage application then inoculation; details: grape seedling
Method: (§1) Each of plastic pots was filled with sandy loam and sown with grape (Berry A), followed by growing in a greenhouse for 40 days. […] Then, the young seedling was inoculated with a suspension of zoosporangia of grape downy mildew fungus by spraying. After the inoculation, the young seedling was allowed to stand overnight at 23° C. and a high humidity and then grown in a greenhouse for 7 days, after which the infection rate (%) was investigated.

[2] = tested on: gray mold fungi sensitive to benzimidazole type fungicidal compounds; assay: Test Example 12: cucumber gray mold, benzimidazole-sensitive fungus; details: cucumber seedling
Method: Each of plastic pots was filled with sandy loam and sown with cucumber (Sagamihanjiro), followed by growing in a greenhouse for 14 days. A wettable powder of test agents prepared according to Formulation Example 41 was diluted to a predetermined concentration with water, and foliage application of the dilution was carried out so as to adhere the dilution sufficiently to the surfaces of leaves of the grown cucumber young seedling. After air-drying, each of gray mold fungi sensitive and tolerant, respectively, to benzimidazole type fungicidal compounds was inoculated on the surfaces of leaves of the young seedling, and the young seedling was grown in the dark at 10° C. and a high humidity for 4 days, after which the infection rate (%) was investigated.

[3] = tested on: gray mold fungi tolerant to benzimidazole type fungicidal compounds; assay: Test Example 12: cucumber gray mold, benzimidazole-tolerant (resistant) fungus; details: cucumber seedling
Method: Each of plastic pots was filled with sandy loam and sown with cucumber (Sagamihanjiro), followed by growing in a greenhouse for 14 days. […] After air-drying, each of gray mold fungi sensitive and tolerant, respectively, to benzimidazole type fungicidal compounds was inoculated on the surfaces of leaves of the young seedling, and the young seedling was grown in the dark at 10° C. and a high humidity for 4 days, after which the infection rate (%) was investigated.

[4] = tested on: apple scab fungus; assay: Test Example 13: apple scab, foliage application then inoculation; assay type: in vivo, Venturia inaequalis; details: apple seedling
[5] = tested on: apple scab fungus; assay: Test Example 8: apple scab, foliage application then inoculation; assay type: in vivo, Venturia inaequalis; details: apple seedling
[6] = tested on: grape downy mildew fungus; assay: Test Example 6: grape downy mildew, foliage application then inoculation; details: grape seedling
Method: as §1

[7] = tested on: tomato late blight fungus; assay type: in vivo, Phytophthora infestans; details: tomato seedling
[8] = tested on: tomato late blight fungus; assay type: in vivo, Phytophthora infestans; details: tomato seedling; remark: listed apart in the source
[9] = tested on: gray mold fungi tolerant to benzimidazole type fungicidal compounds; assay: Test Example 17: cucumber gray mold, benzimidazole-tolerant (resistant) fungus; details: cucumber seedling
Method: (§2) Each of plastic pots was filled with sandy loam and sown with cucumber (Sagamihanjiro), followed by growing in a greenhouse for 14 days. A wettable powder of test agents prepared according to Formulation Example 59 was diluted to a predetermined concentration with water, and foliage application of the dilution was carried out so as to adhere the dilution sufficiently to the surfaces of leaves of the grown cucumber young seedling. After air-drying, each of gray mold fungi sensitive and tolerant, respectively, to benzimidazole type fungicidal compounds was inoculated on the surfaces of leaves of the young seedling, and the young seedling was grown in the dark at 10° C. and a high humidity for 4 days, after which the infection rate (%) was investigated.

[10] = tested on: grape downy mildew fungus; assay: Test Example 7: grape downy mildew, foliage application then inoculation; details: grape seedling
Method: as §1

[11] = tested on: gray mold fungus; assay: Test Example 3: cucumber gray mold, foliage application before inoculation; details: cucumber seedling, applied before inoculation, 4 days
Method: Each of plastic pots was filled with sandy loam and sown with cucumber (Sagamihanjiro), followed by growing in a greenhouse for 14 days. A wettable powder of test agents prepared according to Formulation Example 11 was diluted to a predetermined concentration with water, and foliage application of the dilution was carried out so as to adhere the dilution sufficiently to the surfaces of leaves of the grown cucumber young seedling. After air-drying, gray mold fungus was inoculated on the surfaces of leaves of the young seedling, and the young seedling was grown in the dark at 10° C. and a high humidity for 4 days, after which the infection rate (%) was investigated.

[12] = tested on: grape powdery mildew fungus (Uncinula necator); assay: Test Example 16: grape powdery mildew, spray then inoculation; assay type: in vivo; details: grape plant, 3 weeks at 24° C.
[13] = tested on: grape powdery mildew fungus (Uncinula necator); assay: Test Example 14: grape powdery mildew, spray then inoculation; assay type: in vivo; details: grape plant, 3 weeks at 24° C.
[14] = tested on: gray mold fungi sensitive to benzimidazole type fungicidal compounds; assay: Test Example 17: cucumber gray mold, benzimidazole-sensitive fungus; details: cucumber seedling
Method: as §2

[15] = tested on: gray mold fungus; assay: Test Example 4: cucumber gray mold, foliage application after inoculation; details: cucumber seedling, applied after inoculation
Method: Each of plastic pots was filled with sandy loam and sown with cucumber (Sagamihanjiro), followed by growing in a greenhouse for 14 days. Gray mold fungus was inoculated on the surfaces of leaves of the grown cucumber young seedling, and the young seedling was grown in the dark at 10° C. and a high humidity for 2 days and then at a temperature of 23° C. for 3 days. A wettable powder of test agents prepared according to Formulation Example 11 was diluted to a predetermined concentration with water, and foliage application of the dilution was carried out so as to adhere the dilution sufficiently to the surfaces of leaves of the cucumber young seedling. After the spraying, the young seedling was grown in the dark at 10° C. and a high humidity for 3 days, and then the infection rate (%) was investigated.

[16] = tested on: grape downy mildew fungus (Plasmopara viticola); assay: Test Example 2: grape downy mildew, spray then inoculation, infection rate; assay type: in vivo; details: grape plant, 1 week at 24° C.
Source text: A grape plant (cultivar: Berry A) was planted in each pot and was sprayed with a sufficient volume of a dilution with a predetermined concentration of a wettable powder obtained according to Formulation Example 5, after the plant put out a fourth leaf.

[17] = tested on: gray mold fungus; assay: Test Example 11: cucumber gray mold, foliage application before inoculation; details: cucumber seedling
Method: Each of plastic pots was filled with sandy loam and sown with cucumber (Sagamihanjiro), followed by growing in a greenhouse for 14 days. A wettable powder of test agents prepared according to Formulation Example 35 was diluted to a predetermined concentration with water, and foliage application of the dilution was carried out so as to adhere the dilution sufficiently to the surfaces of leaves of the grown cucumber young seedling. After air-drying, gray mold fungus was inoculated on the surfaces of leaves of the young seedling, and the young seedling was grown in the dark at 10° C. and a high humidity for 4 days, after which the infection rate (%) was investigated.

[18] = tested on: tomato late blight fungus (Phytophthora infestans); assay type: in vivo; details: tomato plant, 1 week at 24° C.
[19] = tested on: tomato late blight fungus (Phytophthora infestans); assay type: in vivo; details: tomato plant, 1 week at 24° C.; remark: listed apart in the source

Compound: COC(=O)[C@H](C)N(C(=O)Cc1ccccc1)c1c(C)cccc1C [Benalaxyl, methyl N-(2,6-dimethylphenyl)-N-(phenylacetyl)alaninate]
- Infection rate (%) ([1]; 1 ppm): 25%

Compound: CCCCNC(=O)n1c(NC(=O)OC)nc2ccccc21 [Benomyl, methyl 1-(butylcarbamoyl)-2-benzimidazole-carbamate, reference compound]
- Infection rate (%) Sensitive fungus ([2]; 10 ppm): 20%
- Infection rate (%) Resistant fungus ([3]; 10 ppm): 100%
- Infection rate (%) ([4]; 20 ppm): 25%

Compound: O=C1C2CC=CCC2C(=O)N1SC(Cl)(Cl)Cl (stereo not drawn) [Captan, 1,2,3,6-tetrahydro-N-(trichloromethylthio)phthalimide, reference compound]
- Infection rate (%) ([5]; 300 ppm): 20%

Compound: N#Cc1c(Cl)c(Cl)c(Cl)c(C#N)c1Cl [Chlorothalonil, tetrachloroisophthalonitrile, reference compound]
- Infection rate (%) ([6]; 30 ppm): 20%
- Infection rate (%) ([7]; 40 ppm): 20%

Compound: CON=C(C(=O)OC)c1ccccc1COc1ccccc1C [Compound (Ia), methyl α-methoxyimino-2-[(2-methylphenoxy)methyl]phenylacetate]
- Infection rate (%) ([5]; 0.8 ppm): 20%
- Infection rate (%) ([6]; 5 ppm): 20%
- Infection rate (%) ([8]; 100 ppm): 25%
- Infection rate (%) Resistant fungus ([9]; 10 ppm): 30%
- Infection rate (%) ([1]; 20 ppm): 25%
- Infection rate (%) ([10]; 10 ppm): 20%
- Infection rate (%) ([11]; 10 ppm): 30%
- Infection rate (%) ([12]; 10 ppm): 30%
- Infection rate (%) ([13]; 1 ppm): 20%
- Infection rate (%) ([7]; 50 ppm): 25%
- Infection rate (%) Sensitive fungus ([14]; 10 ppm): 30%
- Infection rate (%) ([15]; 10 ppm): 30%
- Infection rate (%) ([16]; 10 ppm): 30%
- Infection rate (%) ([17]; 10 ppm): 30%
- Infection rate (%) Sensitive fungus ([2]; 10 ppm): 30%
- Infection rate (%) ([18]; 10 ppm): 25%
- Infection rate (%) Resistant fungus ([3]; 10 ppm): 30%
- Infection rate (%) ([19]; 10 ppm): 25%
- Infection rate (%) ([4]; 1 ppm): 20%

Compound: CNC(=O)C(=NOC)c1ccccc1COc1cccc(Cl)c1 [Compound (Ic), N-methyl-α-methoxyimino-2-[(3-chlorophenoxy)methyl]phenylacetamide]
- Infection rate (%) ([5]; 5 ppm): 25%
- Infection rate (%) ([6]; 5 ppm): 25%
- Infection rate (%) ([8]; 40 ppm): 20%
- Infection rate (%) Resistant fungus ([9]; 200 ppm): 20%
- Infection rate (%) ([1]; 100 ppm): 20%
- Infection rate (%) ([10]; 10 ppm): 25%
- Infection rate (%) ([11]; 200 ppm): 20%
- Infection rate (%) ([12]; 10 ppm): 25%
- Infection rate (%) ([13]; 1 ppm): 20%
- Infection rate (%) ([7]; 40 ppm): 20%
- Infection rate (%) Sensitive fungus ([14]; 200 ppm): 20%
- Infection rate (%) ([15]; 200 ppm): 20%
- Infection rate (%) ([16]; 10 ppm): 25%
- Infection rate (%) ([17]; 200 ppm): 20%
- Infection rate (%) Sensitive fungus ([2]; 200 ppm): 20%
- Infection rate (%) ([18]; 10 ppm): 25%
- Infection rate (%) Resistant fungus ([3]; 200 ppm): 20%
- Infection rate (%) ([19]; 10 ppm): 25%
- Infection rate (%) ([4]; 1 ppm): 30%

Compound: CNC(=O)C(=NOC)c1ccccc1COc1ccc(Cl)cc1Cl [Compound (Id), N-methyl-α-methoxyimino-2-[(2,4-dichlorophenoxy)methyl]phenylacetamide]
- Infection rate (%) ([5]; 5 ppm): 25%
- Infection rate (%) ([6]; 5 ppm): 25%
- Infection rate (%) ([8]; 40 ppm): 20%
- Infection rate (%) Resistant fungus ([9]; 200 ppm): 20%
- Infection rate (%) ([1]; 40 ppm): 20%
- Infection rate (%) ([10]; 10 ppm): 20%
- Infection rate (%) ([11]; 200 ppm): 20%
- Infection rate (%) ([12]; 10 ppm): 25%
- Infection rate (%) ([13]; 1 ppm): 25%
- Infection rate (%) ([7]; 40 ppm): 20%
- Infection rate (%) Sensitive fungus ([14]; 200 ppm): 20%
- Infection rate (%) ([15]; 200 ppm): 20%
- Infection rate (%) ([16]; 10 ppm): 25%
- Infection rate (%) ([17]; 200 ppm): 20%
- Infection rate (%) Sensitive fungus ([2]; 200 ppm): 20%
- Infection rate (%) ([18]; 10 ppm): 25%
- Infection rate (%) Resistant fungus ([3]; 200 ppm): 20%
- Infection rate (%) ([19]; 10 ppm): 25%
- Infection rate (%) ([4]; 5 ppm): 20%

Compound: [Cl-].[Cu+2].[Cu+2].[OH-].[OH-].[OH-] [Copper oxychloride, reference compound]
- Infection rate (%) ([12]; 500 ppm): 30%
- Infection rate (%) ([18]; 500 ppm): 25%

Compound: [Cu+2].[O-]c1cccc2cccnc12.[O-]c1cccc2cccnc12 [Copper oxyquinolinolate, copper oxyquinolinolate (8-hydroxyquinolinate), reference compound]
- Infection rate (%) ([12]; 200 ppm): 25%
- Infection rate (%) ([18]; 50 ppm): 25%

Compound: CCNC(=O)NC(=O)C(C#N)=NOC [Cymoxanil, 2-cyano-N-[ethylaminocarbonyl]-2-(methoxyimino)acetamide]
- Infection rate (%) ([1]; 40 ppm): 20%

Compound: CCOc1ccc(NC(=O)OC(C)C)cc1OCC [Diethofencarb, isopropyl 3,4-diethoxyphenylcarbamate, reference compound]
- Infection rate (%) Resistant fungus ([9]; 10 ppm): 20%
- Infection rate (%) Sensitive fungus ([14]; 10 ppm): 100%

Compound: O=[N+]([O-])c1cc(C(F)(F)F)c(Cl)c([N+](=O)[O-])c1Nc1ncc(C(F)(F)F)cc1Cl [Fluazinam, 3-chloro-N-(3-chloro-5-trifluoromethyl-2-pyridyl)-α,α,α-trifluoro-2,6-dinitro-p-toluidine, reference compound]
- Infection rate (%) ([17]; 1 ppm): 25%

Compound: N#Cc1c[nH]cc1-c1cccc2c1OC(F)(F)O2 [Fludioxonil, 4-(2,2-difluoro-1,3-benzodioxol-4-yl)-1H-pyrrole-3-carbonitrile, reference compound]
- Infection rate (%) ([17]; 0.5 ppm): 20%

Compound: O=C1c2ccccc2C(=O)N1SC(Cl)(Cl)Cl [Folpet, N-(trichloromethylthio)phthalimide, reference compound]
- Infection rate (%) ([10]; 200 ppm): 20%

Compound: CCO[PH](=O)O [Fosetyl aluminum, ethyl hydrogenphosphonate]
- Infection rate (%) ([1]; 100 ppm): 25%

Compound: CC#Cc1cc(C)nc(Nc2ccccc2)n1 [Mepanipyrim, 2-anilino-4-methyl-6-(1-propynyl)pyrimidine, reference compound]
- Infection rate (%) ([17]; 5 ppm): 20%

Compound: COCC(=O)N(c1c(C)cccc1C)[C@@H](C)C(=O)OC [Metalaxyl, methyl N-(2,6-dimethylphenyl)-N-(methoxyacetyl)-alaninate, reference compound]
- Infection rate (%) ([8]; 5 ppm): 20%
- Infection rate (%) ([1]; 1 ppm): 20%

Compound: COCC(=O)N(c1c(C)cccc1C)N1CCOC1=O [Oxadixyl, 2-methoxy-N-(2-oxo-1,3-oxazolidin-3-yl)aceto-2′,6′-xylidide]
- Infection rate (%) ([1]; 5 ppm): 20%

Compound: CC12CC1(C)C(=O)N(c1cc(Cl)cc(Cl)c1)C2=O (stereo not drawn) [Procymidone, N-(3,5-dichlorophenyl)-1,2-dimethylcyclopropane-1,2-dicarboxyimide, reference compound]
- Infection rate (%) ([11]; 10 ppm): 25%
- Infection rate (%) ([15]; 10 ppm): 25%

Compound: Cc1cc(C)nc(Nc2ccccc2)n1 [Pyrimetanil, 2-anilino-4,6-dimethylpyrimidine, reference compound]
- Infection rate (%) ([17]; 10 ppm): 20%

Compound: S1SSSSSSS1 [Sulfur, sulfur, reference compound]
- Infection rate (%) ([13]; 500 ppm): 20%

Compound: c1ccc2[nH]c(-c3cscn3)nc2c1 [Thiabendazole, 2-(4′-thiazolyl)benzimidazole, reference compound]
- Infection rate (%) Sensitive fungus ([2]; 30 ppm): 25%
- Infection rate (%) Resistant fungus ([3]; 30 ppm): 100%

Compound: COC(=O)NC(=S)Nc1ccccc1NC(=S)NC(=O)OC [Thiophanate-methyl, 1,2-bis(3-methoxycarbonyl-2-thioureido)benzene, reference compound]
- Infection rate (%) Sensitive fungus ([2]; 10 ppm): 25%
- Infection rate (%) Resistant fungus ([3]; 10 ppm): 100%
- Infection rate (%) ([4]; 10 ppm): 20%

Compound: Mancozeb [reference compound]
- Infection rate (%) ([16]; 50 ppm): 25%
- Infection rate (%) ([19]; 50 ppm): 25%
